Experimental data as given in patent US20250161243A1, “MEF2 TRANSCRIPTIONAL ACTIVATORS TO TREAT NEUROLOGIC CONDITIONS” (The Scripps Research Institute, priority 2022, published 2025).
“Also recorded” adds a separate entry of the source. Like-named read-outs stand apart in the source and are kept apart here.

Key:
[1] = tested on: MEF2 transcriptional activity; test: MEF2 transcriptional activity screen (Luciferase-MEF2 reporter in human neural progenitor cells); assay type: cell-based; details: for EC50: concentration for half-maximal activity derived from the hill equation model, MEF2 luciferase reporter, read-out: qAC50
[2] = literature references given; cited from earlier work
[3] = tested on: MEF2 transcriptional activity; test: Confirmatory screen and Renilla counter-screen of MEF2 reporter activity; assay type: cell-based, human; details: n=3
Excerpt: FIG. 4. Dose-response for hits in the Renilla counterscreen. Dose response plots for AR-42, that had high EC50 and >3-fold increase in MEF2 activity in the primary screen. (n=3).
(§1) In an embodiment, a compound for use in a method as described herein is AR-42 (Table 1).

[4] = tested on: MEF2C haploinsufficient (MHCS) patient hiPSC-derived cerebrocortical neurons; test: MAP2 protein expression (immunoblot) in MCHS patient hiPSC-derived cerebrocortical neurons; assay type: cell-based, human; details: MCHS neurons versus WT control, in vitro
Excerpt: FIGS. 5A and 5B. […] (FIG. 4A) MAP2 protein expression in neurons treated with AR-42 and (n=3 in 2 independent experiments). (FIG. 4B) Representative immunoblot of MAP2 expression and GAPDH loading control. Data represented as mean±SEM. * P<0.05 by one-way ANOVA and Tukey post-hoc test.
Additionally, the neurons of patients with MEF2C haploinsufficiency syndrome (MCHS) display shorter neurites. The neuronal marker MAP2 was monitored as a biomarker for neurites in the MCHS hiPSC-derived neurons versus WT control: compromised levels of MAP2 were found, but they were corrected by treatment with AR-42 in vitro (FIGS. 6A and 6B). These types of assays correlate well with improvement in behavioral studies in this type of ASD/ID, as illustrated by the use mouse models of MCHS (S. Tu (2017)).

[5] = tested on: MEF2C haploinsufficiency syndrome (MCHS) patient hiPSC-derived cerebrocortical neurons; test: Calcium events (fluo-4AM) in MCHS patient hiPSC-derived cerebrocortical neurons; assay type: cell-based, human; details: MCHS neurons against isogenic WT control
Excerpt: FIGS. 6A and 6B. AR-42 decreases hyperelectrical activity in MEF2C haploinsufficiency syndrome (MCHS) patient hiPSC-derived cerebrocortical neurons. (FIG. 5A) Representative traces of calcium events using fluo-4AM calcium-sensitive dye in hiPSC-derived neurons. […] (FIG. 5B) Quantification of calcium event frequency. Data represent mean±SEM. Sample size was 5 neurons imaged per coverslip in 3 coverslips. * P<0.05 by one-way ANOVA and Tukey post-hoc test.
as §1

What does the source list for `Nc1c2ccccc2nc2ccccc12` [ACRISORCIN]?
EC50 ([1]; Homo sapiens): 19300 nM; PAMPA Pe (10^−6 cm s^−1) [2]: 6 10^−6 cm s^−1

With `CC(C)[C@H](C(=O)Nc1ccc(C(=O)NO)cc1)c1ccccc1` [AR-42] as the compound, how does the “MEF2 transcriptional activity corrected with control Renilla-based (non-specific) reporter” value [3] read?
Its value is “increased MEF2 transcriptional activity”.

What about the EC50 ([1]; Homo sapiens) of the same compound?
The EC50 was 438 nM.

What about the “increase in MEF2 activity in the primary screen” value ([1]; primary screen, 10 μM) of the same compound?
The value was over 3 fold.

What about the “MAP2 levels (neurite biomarker)” value [4] of the same compound?
The value was “increase MAP2 levels; also recorded: corrected”.

What about the “aberrant hyperactivity (Ca^2+ signaling, calcium event frequency)” value [5] of the same compound?
The value was “normalizes this aberrant, excessive activity; also recorded: decreased aberrant hyperactivity”.

Which EC50 ([1]; Homo sapiens) does the source give for `CNS(=O)(=O)Nc1nccc(Cc2c(C)c3ccc(Oc4ncccn4)cc3oc2=O)c1F` [RO-5126766] here?
Its EC50 is 39.1 nM.

And the “PAMPA Pe (10^−6 cm s^−1)” value [2]?
Its value is 6 10^−6 cm s^−1.

With `COc1cc2c(cc1O)C[C@H]1c3c(cc(O)c(OC)c3-2)CCN1C` [boldine] as the compound, how does the EC50 ([1]; Homo sapiens) read?
The EC50 was 13300 nM.

With `Cc1c(OCC(F)(F)F)ccnc1C[S@@+]([O-])c1nc2ccccc2[nH]1` [dexlansoprazole] as the compound, how does the EC50 [1] read?
The EC50 was over 19900 nM.

With `C[C@H](NC(=O)C(=O)Nc1ccccc1C(C)(C)C)C(=O)N[C@@H](CC(=O)O)C(=O)COc1c(F)c(F)cc(F)c1F` [emricasan] as the compound, how does the EC50 ([1]; Homo sapiens) read?
The EC50 was 8710 nM.

For `Nc1ccccc1NC(=O)c1ccc(CNC(=O)OCc2cccnc2)cc1` [entinostat], which EC50 ([1]; Homo sapiens) is on record?
The EC50 was 149 nM.

Which EC50 [1] does the source give for `CN(C)c1ccc2nc3ccc(N(C)C)cc3[s+]c2c1` [methylthioninium chloride] here?
The EC50 was 3770 nM.

With `CC(C)(C)c1[nH]cnc1/C=c1\[nH]c(=O)/c(=C/c2ccccc2)[nH]c1=O` [plinabulin] as the compound, how does the EC50 [1] read?
The EC50 was 2670 nM.

For `CCCCc1nc2cc(/C=C/C(=O)NO)ccc2n1CCN(CC)CC` [pracinostat], which EC50 ([1]; Homo sapiens) is on record?
The EC50 was 210 nM.

For `O=C(CCCCCCC(=O)Nc1cccnc1)NO` [pyroxamide], which EC50 ([1]; Homo sapiens) is on record?
Its EC50 is over 19900 nM.

For `Cn1cc(CNCC2CCN(c3ncc(C(=O)NO)cn3)CC2)c2ccccc21` [quisinostat], which EC50 ([1]; Homo sapiens) is on record?
The EC50 was 90.7 nM.

With `CN(C)Cc1ccc(S(=O)(=O)n2ccc(/C=C/C(=O)NO)c2)cc1` [resminostat] as the compound, how does the EC50 [1] read?
Its EC50 is 1230 nM.

For `O=C(CCCCCCNC(=O)c1cnc(N(c2ccccc2)c2ccccc2)nc1)NO` [ricolinostat], which EC50 [1] is on record?
Its EC50 is 2790 nM.

For `COc1cccc(-c2ccc(NC(=O)C3=C(C(=O)O)CCC3)c(F)c2)c1` [vidofludimus], which EC50 ([1]; Homo sapiens) is on record?
Its EC50 is over 19900 nM.

For Acriflavine, which EC50 [1] is on record?
Its EC50 is 2310 nM.

For CY-190602, which EC50 [1] is on record?
Its EC50 is 2410 nM.

With Chidamide as the compound, how does the EC50 [1] read?
Its EC50 is 36.6 nM.

With OXAMFLATIN as the compound, how does the EC50 [1] read?
The EC50 was over 19900 nM.

For XR 5944, which EC50 [1] is on record?
Its EC50 is 4520 nM.

Which EC50 [1] does the source give for retapamulin here?
Its EC50 is 19600 nM.
